The values below come from patent US20250101038A1, “COMPOUNDS” (priority 2021, published 2025).

“And” between values parts separate entries of the source, which are not always exact repeats. Equal values may be shown once. Read-outs that look alike come from different tables or passages of the source.

One series deals with T1, 5-HT2A receptor (Homo sapiens, UniProt P28223).
T1 construct: host or cells: HEK293
Briefly: FLIPR Ca2+ flux functional assay, 5-HT2A. The series is classed as cell-based. Particulars: agonist activity, Ca2+ flux, HEK293 cells; for EC50: read-out: 5-HT2A EC50.

Another series addresses T2, 5-HT2B receptor (Homo sapiens, UniProt P41595).
T2 construct: host or cells: CHO-K1
Briefly: cell-based. Particulars: agonist activity, Ca2+ flux, CHO-K1 cells; for EC50: read-out: 5-HT2B EC50. (Calcium flux is commonly read through the fluorescence of an indicator in the cells.)

The target in a further series is T3, 5-HT2C receptor (Homo sapiens, UniProt P28335).
T3 construct: host or cells: HEK293
T3 sequence (P28335 33-458): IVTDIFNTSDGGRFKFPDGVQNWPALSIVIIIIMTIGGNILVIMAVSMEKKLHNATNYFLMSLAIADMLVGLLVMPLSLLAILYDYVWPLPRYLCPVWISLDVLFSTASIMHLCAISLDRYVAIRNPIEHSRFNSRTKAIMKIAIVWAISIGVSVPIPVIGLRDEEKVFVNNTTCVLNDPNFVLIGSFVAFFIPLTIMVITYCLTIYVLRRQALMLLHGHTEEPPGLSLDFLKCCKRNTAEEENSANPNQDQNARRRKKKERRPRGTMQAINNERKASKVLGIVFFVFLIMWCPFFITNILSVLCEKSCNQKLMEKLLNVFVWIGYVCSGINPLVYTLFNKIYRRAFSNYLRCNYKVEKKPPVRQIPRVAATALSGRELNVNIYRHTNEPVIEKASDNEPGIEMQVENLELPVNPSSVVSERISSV
Briefly: cell-based. To be noted: agonist activity, Ca2+ flux, HEK293 cells; for EC50: read-out: 5-HT2C EC50.

Series [1] in a line: In vivo pharmacokinetics, plasma and brain exposure after IP dosing. On the set-up: species or system male C57BL/6 mice.
Description: The systemic exposure of selected examples was studied in non-fasted male C57BL/6 mice weighing between 18.9-25.5 g. Mice had access to food and water ad libitum throughout the pre- and post-dose sampling period.
On the day of dosing, the formulation of each compound was prepared by dissolving solid compound in phosphate buffer saline (50 mM) using vortexing, creating colourless solutions (pH 6.4-6.5) for each compound.
Compounds were dosed to mice by IP injection (10 mL/kg dose volume via a 27G needle; n=9 mice per compound) and blood samples were collected at 5 and 30 min; 1, 2 and 4 h post-dose (n=3 mice per time point for each compound). A maximum of three blood samples were obtained from each mouse, with plasma samples being taken via submandibular bleed (approximately 120 μL). Once collected, blood samples were centrifuged immediately, supernatant plasma was removed, and stored at −80° C. until analysis by LCMS. In addition, at the 5 and 30 min and 4 h post-dose time points, the whole brain was rapidly removed from the carcass soon after the blood collection. The whole brains were blotted to remove excess blood, placed into pre-weighed polypropylene vials, and weighed. The brains were snap frozen in dry ice and subsequently stored frozen (−80° C.) until analysis.
Concentrations of test compound in plasma and tissue samples were determined using an LCMS/MS method validated for linearity, accuracy, precision, matrix factor and recovery (Table 2). Test compound standard solutions were diluted from a concentrated stock solution (32 mM in H2O) using 50% can in H2O (v/v) and a calibration curve was prepared in a matched matrix to the test samples.
Plasma: The plasma calibration curve was prepared by spiking aliquots of blank mouse plasma (25 μL) with test compound standard solutions (5 μL) and internal standard solution (5 μL of diazepam, 5 μg/mL in 50% acetonitrile in water). Test plasma samples (25 μL) were thawed, mixed, and then spiked with internal standard solution (5 μL). Plasma protein precipitation was performed by addition of acetonitrile (3-fold volume ratio) and thorough vortex mixing. Samples were centrifuged (RCF=9391×g) for 3 minutes and the supernatant (90 μL) was collected for analysis.
Tissue: Pre-weighed tissue samples (brain) were homogenised using a glass rod in buffer containing an EDTA/potassium fluoride solution (0.1 M/4 mg/mL) as a stabilisation cocktail to minimise the potential for ex vivo degradation (3 mL cocktail/g tissue). The tissue homogenate was briefly centrifuged (RCF=79×g) for 10 seconds to separate the foam layer before transferring an aliquot of the tissue homogenate (200 μL) to a fresh Eppendorf tube for sample extraction. Calibration standards were prepared by spiking blank brain homogenate (200 μL) with the solution standards (10 μL) and the internal standard (10 μL). Study samples were similarly prepared, except that acetonitrile (10 μL) was added instead of solution standards to maintain the same volume. Protein precipitation was carried out by the addition of a 3-fold volume of acetonitrile, followed by vortex mixing and centrifugation (RCF=9391×g) for 3 min to recover the supernatant for analysis.
Replicate analysis: Triplicate analytical replicate (ARs) samples were prepared similarly to the standards for each sample type at three concentrations (50, 500 and 2,000 ng/ml) and repeat injections of these ARs were included throughout the analytical run to assess assay performance. The extraction of the test compound from the standards and ARs were conducted as described above.
The mark [2] stands for this setting: 0.083 h, IP 10 mg/kg, individual mouse, 10 mg/kg.
[3] abbreviates: 0.5 h, IP 10 mg/kg, individual mouse, 10 mg/kg.
The mark [4] stands for this setting: 4 h, IP 10 mg/kg, individual mouse, 10 mg/kg.
Where [5] appears, read: mouse, plasma, male C57BL/6 mice, IP 10 mg/kg.

T1 sequence (P28223 whole entry): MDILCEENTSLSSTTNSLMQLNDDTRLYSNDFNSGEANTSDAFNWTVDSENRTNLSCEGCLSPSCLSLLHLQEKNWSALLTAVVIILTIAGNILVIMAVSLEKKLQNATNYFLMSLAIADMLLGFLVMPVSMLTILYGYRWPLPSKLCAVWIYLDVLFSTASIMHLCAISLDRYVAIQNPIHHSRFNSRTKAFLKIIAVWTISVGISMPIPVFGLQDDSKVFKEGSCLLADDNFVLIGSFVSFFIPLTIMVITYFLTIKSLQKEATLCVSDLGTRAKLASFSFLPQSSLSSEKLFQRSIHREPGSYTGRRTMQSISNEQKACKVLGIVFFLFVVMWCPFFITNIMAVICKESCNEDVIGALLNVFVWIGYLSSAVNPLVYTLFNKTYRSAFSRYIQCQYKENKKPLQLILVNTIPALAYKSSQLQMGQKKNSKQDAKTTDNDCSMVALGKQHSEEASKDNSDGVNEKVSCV
T2 sequence (P41595 whole entry): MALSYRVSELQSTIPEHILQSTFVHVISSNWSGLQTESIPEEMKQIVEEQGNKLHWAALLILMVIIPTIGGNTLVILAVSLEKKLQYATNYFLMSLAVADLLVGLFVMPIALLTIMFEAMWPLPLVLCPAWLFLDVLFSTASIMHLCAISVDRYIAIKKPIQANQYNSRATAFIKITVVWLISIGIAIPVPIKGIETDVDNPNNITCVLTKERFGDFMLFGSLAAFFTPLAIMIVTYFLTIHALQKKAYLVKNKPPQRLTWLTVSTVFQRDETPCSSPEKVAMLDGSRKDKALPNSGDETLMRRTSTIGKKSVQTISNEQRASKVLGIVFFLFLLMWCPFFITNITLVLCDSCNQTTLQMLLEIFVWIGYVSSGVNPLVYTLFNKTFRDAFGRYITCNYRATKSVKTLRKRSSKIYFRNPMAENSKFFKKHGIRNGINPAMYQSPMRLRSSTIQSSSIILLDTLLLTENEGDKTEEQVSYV

On to `CCN(C)CCc1c[nH]c2cc(C)c(OC)cc12` [Example P-42, N-ethyl-2-(5-methoxy-6-methyl-1H-indol-3-yl)-N-methylethan-1-amine], for which the Emax (commonly the size of the effect at its maximum, as opposed to the concentration needed) stood at 88.2% at 5-HT2A receptor, 8.39% at 5-HT2B receptor and 85.8% at 5-HT2C receptor. The EC50 (commonly the midpoint of the concentration-response curve) on 5-HT2A receptor was 26.5 nM; at 5-HT2B receptor, > 10 µM; on 5-HT2C receptor it was 68.5 nM. The “B:P Ratio, Individual” value was 3.8 and 7.1 and 2.0 in series [1] (setting [2]); 20 and 11 in series [1] (setting [3]); 18 and 14 and 8.2 in series [1] (setting [4]). The “Plasma Concentration, Individual” value in series [1] (setting [2]) is 1.76 µM and 3.44 µM; in series [1] (setting [3]), 1.88 µM and 1.82 µM; in series [1] (setting [4]), 0.0384 µM and 0.0209 µM. The concentration at 0.5 h was 12.6 µM and 7.01 µM in series [1] (0.083 h, IP 10 mg/kg, individual mouse, 10 mg/kg, read-out: Brain Parenchyma Concentration, Individual); 37.3 µM and 19.9 µM in series [1] (0.5 h, IP 10 mg/kg, individual mouse, 10 mg/kg, read-out: Brain Parenchyma Concentration, Individual); 0.408 µM and 0.530 µM and 0.171 µM in series [1] (4 h, IP 10 mg/kg, individual mouse, 10 mg/kg, read-out: Brain Parenchyma Concentration, Individual); 21.3 µM in series [1] (male, C57BL/6, mouse, brain, ip, 10 mg/kg, 0.5 h, individual mouse, read-out: Brain Parenchyma Concentration, Individual); 26.2 ± 9.68 µM in series [1] (male, C57BL/6, mouse, brain, ip, 10 mg/kg, 0.5 h, n = 3, read-out: Brain Parenchyma Concentration, Mean ± SD); 1.2 µM in series [1] (male, C57BL/6, mouse, plasma, ip, 10 mg/kg, 0.5 h, individual mouse, read-out: Plasma Concentration, Individual). Further, in series [1] (male, C57BL/6, mouse, plasma, ip, 10 mg/kg, 0.5 h, n = 3, read-out: Plasma Concentration, Mean ± SD), the concentration at 0.5 h was found to be 1.64 ± 0.376 µM. For the same compound, the concentration at 0.083 h in series [1] (male, C57BL/6, mouse, brain, ip, 10 mg/kg, 0.083 h, individual mouse, read-out: Brain Parenchyma Concentration, Individual) came out at 10.1 µM; in series [1] (male, C57BL/6, mouse, brain, ip, 10 mg/kg, 0.083 h, n = 3, read-out: Brain Parenchyma Concentration, Mean ± SD), 9.9 ± 2.79 µM; in series [1] (male, C57BL/6, mouse, plasma, ip, 10 mg/kg, 0.083 h, individual mouse, read-out: Plasma Concentration, Individual) it was 2.65 µM; in series [1] (male, C57BL/6, mouse, plasma, ip, 10 mg/kg, 0.083 h, n = 3, read-out: Plasma Concentration, Mean ± SD) it was 2.62 ± 0.84 µM. For the same compound, the concentration at 4 h in series [1] (male, C57BL/6, mouse, brain, ip, 10 mg/kg, 4 h, n = 3, read-out: Brain Parenchyma Concentration, Mean ± SD) came to 370 ± 182 nM; in series [1] (male, C57BL/6, mouse, plasma, ip, 10 mg/kg, 4 h, individual mouse, read-out: Plasma Concentration, Individual) it was 22.5 nM; in series [1] (male, C57BL/6, mouse, plasma, ip, 10 mg/kg, 4 h, n = 3, read-out: Plasma Concentration, Mean ± SD) it was 27.3 ± 9.7 nM. Further, in series [1] (male, C57BL/6, mouse, brain/plasma, ip, 10 mg/kg, 0.083 h, n = 3, read-out: B:P Ratio, Mean ± SD), the Kp at 0.083 h worked out at 4.3 ± 2.6. Besides, the Kp at 0.5 h in series [1] (male, C57BL/6, mouse, brain/plasma, ip, 10 mg/kg, 0.5 h, individual mouse, read-out: B:P Ratio, Individual) was 18; in series [1] (male, C57BL/6, mouse, brain/plasma, ip, 10 mg/kg, 0.5 h, n = 3, read-out: B:P Ratio, Mean ± SD), 16 ± 4.6. For the same compound, in series [1] (male, C57BL/6, mouse, brain/plasma, ip, 10 mg/kg, 4 h, n = 3, read-out: B:P Ratio, Mean ± SD), the Kp at 4 h was determined as 13 ± 5. In addition, the Cmax – broadly, the peak of the concentration-time curve – in series [1] (setting [5]) was 2620 nM. Besides, the Tmax (as a rule, the time from dosing to the highest level) in series [1] (setting [5]) came to 4.98 min. Moreover, in series [1] (mouse, plasma, male C57BL/6 mice, IP 10 mg/kg, read-out: Plasma AUC0-inf), the AUC(0-inf) came to 2.36 µM·h. Besides, the half-life in series [1] (mouse, male C57BL/6 mice, IP 10 mg/kg, plasma, read-out: Apparent T1/2 (converted)) is 36 min.

`CC(C)N(C)CCc1c[nH]c2cc(F)c(F)cc12` [Example P-155, N-(2-(5,6-difluoro-1H-indol-3-yl)ethyl)-N-methylpropan-2-amine]: the Emax on 5-HT2A receptor amounted to 73.4%; on 5-HT2B receptor it was 45.4%; at 5-HT2C receptor it was 83.7%. The EC50 on 5-HT2A receptor was 10.4 nM; at 5-HT2B receptor, ≥ 10 µM; at 5-HT2C receptor it was 50.7 nM.

For `CN(C)CCc1c[nH]c2c(F)cc(F)cc12` [Example P-156, 2-(5,7-difluoro-1H-indol-3-yl)-N,N-dimethylethan-1-amine], the Emax on 5-HT2A receptor is 48%; on 5-HT2B receptor, -4.13%; at 5-HT2C receptor, 85.2%. In addition, the EC50 at 5-HT2A receptor is 41.1 nM; on 5-HT2B receptor it was > 10 µM; at 5-HT2C receptor, 11.3 nM.

`CN(C)CCc1c[nH]c2c(F)c(F)ccc12` [Example P-159, 2-(6,7-difluoro-1H-indol-3-yl)-N,N-dimethylethan-1-amine]: the values for the Emax at 5-HT2A receptor, at 5-HT2B receptor and at 5-HT2C receptor were 62%, 3.79% and 99.3%, respectively. For the same compound, the results for the EC50 on 5-HT2A receptor, at 5-HT2B receptor and at 5-HT2C receptor were 28.6 nM, > 10 µM and 36.5 nM, respectively.

`CC(C)N(C)CCc1c[nH]c2c(F)c(F)ccc12` [Example P-161, N-(2-(6,7-difluoro-1H-indol-3-yl)ethyl)-N-methylpropan-2-amine]: the Emax on 5-HT2A receptor was found to be 48%; on 5-HT2B receptor, 1.6%; at 5-HT2C receptor, 80.9%. Besides, the EC50 was 54.8 nM on 5-HT2A receptor, > 10 µM at 5-HT2B receptor and 418 nM at 5-HT2C receptor.
